Experiments:
HBV = experiment: Determination of HBV DNA from the supernatants of HepAD38 cells (anti-HBV activity); type: cell-based, hepatitis B virus; conditions: Hepatitis B virus, 144 h; HBV DNA in HepAD38 supernatant at day 6; read-out: Cell Activity (EC50)
In short: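 HepAD38 cells (60,000/well) were treated with half-log compound dilutions in tetracycline-free medium to induce HBV production. On day 6, HBV DNA was purified from filtered supernatant and quantified by real-time PCR against plasmid standards. EC50 values came from non-linear regression of relative copy numbers, typically from three experiments in triplicate.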

HBV core protein = HBV core protein (UniProt P03146); type: biochemical; conditions: read-out: Assembly Activity (IC50); BODIPY-FL labelled core protein, assembly started with NaCl, read after 6 min
In short: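 Fluorescence-quenching assembly assay using E. coli-expressed core protein 1–149 plus Cys150, labelled with BODIPY-FL maleimide, at 1.0–2.0 μM in 50 mM HEPES pH 7.5, 0.5% DMSO. Assembly started with NaCl to […]; fluorescence (ex 477/em 525 nm) read after 6 min. EC50 by non-linear regression, 8-point 0.5-log dilutions.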

HBV core protein, sequence (P03146 whole entry, looked up): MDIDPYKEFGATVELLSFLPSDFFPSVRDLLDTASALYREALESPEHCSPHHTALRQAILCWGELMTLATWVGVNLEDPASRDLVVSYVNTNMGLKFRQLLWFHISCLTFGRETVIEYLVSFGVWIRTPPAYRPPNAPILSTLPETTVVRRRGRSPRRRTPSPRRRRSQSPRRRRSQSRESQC

For `O=C1CC(C(=O)Nc2nc3c(s2)CN(C(=O)c2cc4ccccc4[nH]2)CC3)CCN1` (centres unmarked) [Example 412, N-[5-(1H-indole-2-carbonyl)-4H,5H,6H,7H-[1,3]thiazolo[5,4-c]pyridin-2-yl]-2-oxopiperidine-4-carboxamide], the EC50 (HBV) was < 1 µM and the IC50 (HBV core protein) was < 5 µM.

In the case of `Cc1nc2c(s1)CN(C(=O)c1cc3c(F)c(F)ccc3[nH]1)CC2` [Example 193, 4,5-difluoro-2-{2-methyl-4H,5H,6H,7H-[1,3]thiazolo[5,4-c]pyridine-5-carbonyl}-1H-indole], the EC50 (HBV) is reported as < 1 µM and the IC50 (HBV core protein) is reported as < 5 µM.

With `CC(=O)N1CCOCC1CNc1nc2c(s1)CN(C(=O)c1cc3ccccc3[nH]1)CC2` (centres unmarked) [Example 232, 1-[3-({[5-(1H-indole-2-carbonyl)-4H,5H,6H,7H-[1,3]thiazolo[5,4-c]pyridin-2-yl]amino}methyl)morpholin-4-yl]ethan-1-one] the EC50 (HBV) was < 1 µM and the IC50 (HBV core protein) was 5 to 10 µM.

For `O=C(Nc1nc2c(s1)CN(C(=O)c1cc3c(Cl)cccc3[nH]1)CC2)C1CCOCC1` [Example 316, N-[5-(4-chloro-1H-indole-2-carbonyl)-4H,5H,6H,7H-[1,3]thiazolo[5,4-c]pyridin-2-yl]oxane-4-carboxamide], the EC50 (HBV) was < 1 µM and the IC50 (HBV core protein) was < 5 µM.

With `Cc1cccc2[nH]c(C(=O)N3CCc4nc(NC5CCOC5)sc4C3)cc12` (centres unmarked) [Example 76, 5-(4-methyl-1H-indole-2-carbonyl)-N-(oxolan-3-yl)-4H,5H,6H,7H-[1,3]thiazolo[5,4-c]pyridin-2-amine] the EC50 (HBV) was < 1 µM and the IC50 (HBV core protein) was < 5 µM.

`Cc1cc(C)c2cc(C(=O)N3CCc4nc(N)sc4C3)[nH]c2c1` [Example 138, 5-(4,6-dimethyl-1H-indole-2-carbonyl)-4H,5H,6H,7H-[1,3]thiazolo[5,4-c]pyridin-2-amine] was tested, and the EC50 (HBV) was 1 to 10 µM and the IC50 (HBV core protein) was < 5 µM.

With `Nc1nc2c(s1)CN(C(=O)c1cc3c(Cl)c(F)ccc3[nH]1)CC2` [Example 80, 5-(4-chloro-5-fluoro-1H-indole-2-carbonyl)-4H,5H,6H,7H-[1,3]thiazolo[5,4-c]pyridin-2-amine] the EC50 (HBV) was < 1 µM and the IC50 (HBV core protein) was < 5 µM.

With `Nc1nc2c(s1)CCN(C(=O)c1cc3ccccc3[nH]1)CC2` [Example 25, 6-(1H-indole-2-carbonyl)-4H,5H,6H,7H,8H-[1,3]thiazolo[4,5-d]azepin-2-amine] the EC50 (HBV) was < 100 µM and the IC50 (HBV core protein) was < 100 µM.

`Nc1nc2c(s1)CN(C(=O)c1cc3ccc(C(F)(F)F)cc3[nH]1)CC2` [Example 199, 5-[6-(trifluoromethyl)-1H-indole-2-carbonyl]-4H,5H,6H,7H-[1,3]thiazolo[5,4-c]pyridin-2-amine] was tested, and the EC50 (HBV) was < 1 µM and the IC50 (HBV core protein) was < 5 µM.

`CC(C)Nc1nc2c(s1)CN(C(=O)c1cc3ccccc3[nH]1)CC2` [Example 128, 5-(1H-indole-2-carbonyl)-N-(propan-2-yl)-4H,5H,6H,7H-[1,3]thiazolo[5,4-c]pyridin-2-amine] was tested, and the EC50 (HBV) was < 1 µM and the IC50 (HBV core protein) was < 5 µM.

`O=C(c1cc2ccccc2[nH]1)N1CCc2nc(NC[C@@H]3COC[C@@H]3O)sc2C1` [Example 241, (3R,4R)-4-({[5-(1H-indole-2-carbonyl)-4H,5H,6H,7H-[1,3]thiazolo[5,4-c]pyridin-2-yl]amino}methyl)oxolan-3-ol] was tested, and the EC50 (HBV) was < 1 µM and the IC50 (HBV core protein) was < 5 µM.

For `O=C(c1cc2ccccc2[nH]1)N1CCc2nc(NCCn3cccn3)sc2C1` [Example 285, 5-(1H-indole-2-carbonyl)-N-[2-(1H-pyrazol-1-yl)ethyl]-4H,5H,6H,7H-[1,3]thiazolo[5,4-c]pyridin-2-amine], the EC50 (HBV) was < 1 µM and the IC50 (HBV core protein) was < 5 µM.

In the case of `CCc1cccc2[nH]c(C(=O)N3CCc4nc(N)sc4C3)cc12` [Example 81, 5-(4-ethyl-1H-indole-2-carbonyl)-4H,5H,6H,7H-[1,3]thiazolo[5,4-c]pyridin-2-amine], the EC50 (HBV) is reported as < 1 µM and the IC50 (HBV core protein) is reported as < 5 µM.

`Cc1cccc2[nH]c(C(=O)N3CCc4nc(N)sc4C3)cc12` [Example 149, 5-(4-methyl-1H-indole-2-carbonyl)-41H,5H,6H,7H-[1,3]thiazolo[5,4-c]pyridin-2-amine] was tested, and the EC50 (HBV) was 1 to 10 µM and the IC50 (HBV core protein) was < 5 µM.

In the case of `O=C(c1cc2c(F)cc(F)cc2[nH]1)N1CCc2nc(NCCO)sc2C1` [Example 111, 2-{[5-(4,6-difluoro-1H-indole-2-carbonyl)-4H,5H,6H,7H-[1,3]thiazolo[5,4-c]pyridin-2-yl]amino}ethan-1-ol], the EC50 (HBV) is reported as < 1 µM and the IC50 (HBV core protein) is reported as < 5 µM.

With `O=C(c1cc2ccccc2[nH]1)N1CCc2nc(NCC3(O)CCOC3)sc2C1` (centres unmarked) [Example 253, 3-({[5-(1H-indole-2-carbonyl)-4H,5H,6H,7H-[1,3]thiazolo[5,4-c]pyridin-2-yl]amino}methyl)oxolan-3-ol] the EC50 (HBV) was < 1 µM and the IC50 (HBV core protein) was < 5 µM.

Molecule `O=C(c1cc2c(F)cc(F)cc2[nH]1)N1CCc2nc(OCCO)sc2C1` [Example 102, 2-{[5-(4,6-difluoro-1H-indole-2-carbonyl)-4H,5H,6H,7H-[1,3]thiazolo[5,4-c]pyridin-2-yl]oxy}ethan-1-ol] has an EC50 (HBV) of 1 to 10 µM and an IC50 (HBV core protein) of 5 to 10 µM.

`CC(C)(O)CNc1nc2c(s1)CN(C(=O)c1cc3ccccc3[nH]1)CC2` [Example 95, 1-{[5-(1H-indole-2-carbonyl)-4H,5H,6H,7H-[1,3]thiazolo[5,4-c]pyridin-2-yl]amino}-2-methylpropan-2-ol] was tested, and the EC50 (HBV) was < 1 µM and the IC50 (HBV core protein) was < 5 µM.

For `CN1CCN(CCNc2nc3c(s2)CN(C(=O)c2cc4ccccc4[nH]2)CC3)CC1` [Example 181, 5-(1H-indole-2-carbonyl)-N-[2-(4-methylpiperazin-1-yl)ethyl]-4H,5H,6H,7H-[1,3]thiazolo[5,4-c]pyridin-2-amine], the EC50 (HBV) was 1 to 10 µM and the IC50 (HBV core protein) was < 5 µM.

In the case of `O=C(c1cc2c(F)cc(F)cc2[nH]1)N1CCc2nc(NCC3(CO)CC3)sc2C1` [Example 75, [1-({[5-(4,6-difluoro-1H-indole-2-carbonyl)-4H,5H,6H,7H-[1,3]thiazolo[5,4-c]pyridin-2-yl]amino}methyl)cyclopropyl]methanol], the EC50 (HBV) is reported as < 1 µM and the IC50 (HBV core protein) is reported as < 5 µM.

With `CCc1cccc2[nH]c(C(=O)N3CCc4nc(NC5(CO)CCC5)sc4C3)cc12` [Example 300, (1-{[5-(4-ethyl-1H-indole-2-carbonyl)-4H,5H,6H,7H-[1,3]thiazolo[5,4-c]pyridin-2-yl]amino}cyclobutyl)methanol] the EC50 (HBV) was < 1 µM and the IC50 (HBV core protein) was < 5 µM.

For `CCC(C)(C)CC(=O)Nc1nc2c(s1)CN(C(=O)c1cc3ccccc3[nH]1)CC2` [Example 262, N-[5-(1H-indole-2-carbonyl)-4H,5H,6H,7H-[1,3]thiazolo[5,4-c]pyridin-2-yl]-3,3-dimethylpentanamide], the EC50 (HBV) was < 1 µM and the IC50 (HBV core protein) was < 100 µM.

`CCc1cccc2[nH]c(C(=O)N3CCc4nc(NCC5CCOC5)sc4C3)cc12` (centres unmarked) [Example 115, 5-(4-ethyl-1H-indole-2-carbonyl)-N-[(oxolan-3-yl)methyl]-4H,5H,6H,7H-[1,3]thiazolo[5,4-c]pyridin-2-amine] was tested, and the EC50 (HBV) was < 1 µM and the IC50 (HBV core protein) was < 5 µM.

`CC(C)(C)CC(=O)Nc1nc2c(s1)CN(C(=O)c1cc3c(Cl)cccc3[nH]1)CC2` [Example 263, N-[5-(4-chloro-1H-indole-2-carbonyl)-4H,5H,6H,7H-[1,3]thiazolo[5,4-c]pyridin-2-yl]-3,3-dimethylbutanamide] was tested, and the EC50 (HBV) was < 1 µM and the IC50 (HBV core protein) was 5 to 10 µM.

`Cc1cc(F)cc2[nH]c(C(=O)N3CCc4nc(NCC5(CO)CC5)sc4C3)cc12` [Example 271, [1-({[5-(6-fluoro-4-methyl-1H-indole-2-carbonyl)-4H,5H,6H,7H-[1,3]thiazolo[5,4-c]pyridin-2-yl]amino}methyl)cyclopropyl]methanol] was tested, and the EC50 (HBV) was < 1 µM and the IC50 (HBV core protein) was < 5 µM.

Source: patent US11267825B2 (AICURIS GMBH & CO. KG, priority 2017, dated 2022)
